Experiments:
Assay in all cases: cells
[1] = test system: ATN-1; assay type: functional, cell-based, Homo sapiens; conditions: Homo sapiens, ATN-1;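 note: growth inhibition of human ATN-1 cells, read out with a cell viability assay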
Description: SANGER: Inhibition of human ATN-1 cell growth in a cell viability assay.

[2] = test system: SNU1; assay type: functional, cell-based, Homo sapiens; conditions: Homo sapiens, SNU1;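 note: growth inhibition of human NCI-SNU-1 cells, measured with a cell viability assay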
Description: SANGER: Inhibition of human NCI-SNU-1 cell growth in a cell viability assay.

[3] = test system: BT-474; assay type: functional, cell-based, Homo sapiens; conditions: Homo sapiens, BT-474
Description: SANGER: Inhibition of human BT-474 cell growth in a cell viability assay.

[4] = test system: IST-SL1; assay type: functional, cell-based, Homo sapiens; conditions: Homo sapiens, IST-SL1;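 note: growth inhibition of human IST-SL1 cells, read out with a cell viability assay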
Description: SANGER: Inhibition of human IST-SL1 cell growth in a cell viability assay.

[5] = test system: D283 Med; assay type: functional, cell-based, Homo sapiens; conditions: Homo sapiens, D283 Med
Description: SANGER: Inhibition of human D-283MED cell growth in a cell viability assay.

[6] = test system: KM-H2; assay type: functional, cell-based, Homo sapiens; conditions: Homo sapiens, KM-H2;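 note: growth inhibition of KM-H2 cells, read out by a cell viability assay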
Description: SANGER: Inhibition of human KM-H2 cell growth in a cell viability assay.

[7] = test system: HEL; assay type: functional, cell-based, Homo sapiens; conditions: Homo sapiens, HEL;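 note: growth inhibition of HEL cells, read out with a cell viability assay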
Description: SANGER: Inhibition of human HEL cell growth in a cell viability assay.

[8] = test system: RKO; assay type: functional, cell-based, Homo sapiens; conditions: Homo sapiens, RKO;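 note: growth inhibition of human RKO cells, read out with a cell viability assay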
Description: SANGER: Inhibition of human RKO cell growth in a cell viability assay.

[9] = test system: UACC-257; assay type: functional, cell-based, Homo sapiens; conditions: Homo sapiens, UACC-257
Description: SANGER: Inhibition of human UACC-257 cell growth in a cell viability assay.

[10] = test system: J-RT3-T3-5; assay type: functional, cell-based, Homo sapiens; conditions: Homo sapiens, J-RT3-T3-5;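 note: cell viability assay measuring growth inhibition of human J-RT3-T3-5 cells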
Description: SANGER: Inhibition of human J-RT3-T3-5 cell growth in a cell viability assay.

[11] = test system: PSN1; assay type: functional, cell-based, Homo sapiens; conditions: Homo sapiens, PSN1;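 note: suppression of growth of human PSN1 cells, read out by a cell viability assay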
Description: SANGER: Inhibition of human PSN1 cell growth in a cell viability assay.

[12] = test system: NEC8; assay type: functional, cell-based, Homo sapiens; conditions: Homo sapiens, NEC8;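 note: growth inhibition of human NEC8 cells, read out by a cell viability assay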
Description: SANGER: Inhibition of human NEC8 cell growth in a cell viability assay.

[13] = test system: TK-10; assay type: functional, cell-based, Homo sapiens; conditions: Homo sapiens, TK-10;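 note: growth inhibition of TK-10 cells, read out in a cell viability assay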
Description: SANGER: Inhibition of human TK10 cell growth in a cell viability assay.

[14] = test system: OVCAR-4; assay type: functional, cell-based, Homo sapiens; conditions: Homo sapiens, OVCAR-4;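 note: growth inhibition of human OVCAR-4 cells, measured with a cell viability assay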
Description: SANGER: Inhibition of human OVCAR-4 cell growth in a cell viability assay.

[15] = test system: COLO-684; assay type: functional, cell-based, Homo sapiens; conditions: Homo sapiens, COLO-684
Description: SANGER: Inhibition of human COLO-684 cell growth in a cell viability assay.

[16] = test system: C8166; assay type: functional, cell-based, Homo sapiens; conditions: Homo sapiens, C8166;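 note: growth inhibition of human C8166 cells measured by a cell viability assay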
Description: SANGER: Inhibition of human C8166 cell growth in a cell viability assay.

[17] = test system: HCE-4; assay type: functional, cell-based; conditions: Homo sapiens;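 note: cell viability assay measuring inhibition of growth in the human HCE-4 cell line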
Description: SANGER: Inhibition of human HCE-4 cell growth in a cell viability assay.

[18] = test system: U-87 MG; assay type: functional, cell-based, Homo sapiens, U-87MG ATCC; conditions: Homo sapiens, U-87 MG;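 note: growth inhibition of the cells measured with a viability assay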
Description: SANGER: Inhibition of human U-87-MG cell growth in a cell viability assay.

[19] = test system: LXF-289 cell line; assay type: functional, cell-based; conditions: Homo sapiens
Description: SANGER: Inhibition of human LXF-289 cell growth in a cell viability assay.

[20] = test system: DU-4475; assay type: functional, cell-based, Homo sapiens; conditions: Homo sapiens, DU-4475
Description: SANGER: Inhibition of human DU-4475 cell growth in a cell viability assay.

[21] = test system: U-266; assay type: functional, cell-based, Homo sapiens; conditions: Homo sapiens, U-266
Description: SANGER: Inhibition of human U-266 cell growth in a cell viability assay.

[22] = test system: SNU-C2B; assay type: functional, cell-based; conditions: Homo sapiens;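 note: cell viability readout used to measure compound-driven suppression of SNU-C2B cell proliferation, IC50 marking half-maximal growth inhibition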
Description: SANGER: Inhibition of human SNU-C2B cell growth in a cell viability assay.

[23] = test system: GAK; assay type: functional, cell-based, Homo sapiens; conditions: Homo sapiens, GAK;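 note: cell growth inhibition read out by a cell viability assay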
Description: SANGER: Inhibition of human GAK cell growth in a cell viability assay.

[24] = test system: RS4-11; assay type: functional, cell-based, Homo sapiens; conditions: Homo sapiens, RS4-11;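 note: growth inhibition of RS4-11 cells, read out by a cell viability assay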
Description: SANGER: Inhibition of human RS4-11 cell growth in a cell viability assay.

[25] = test system: D-247MG; assay type: functional, cell-based; conditions: Homo sapiens
Description: SANGER: Inhibition of human D-247MG cell growth in a cell viability assay.

[26] = test system: Becker; assay type: functional, cell-based, Homo sapiens; conditions: Homo sapiens, Becker;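 note: growth inhibition of Becker cells, read out with a cell viability assay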
Description: SANGER: Inhibition of human Becker cell growth in a cell viability assay.

[27] = test system: NCI-H526; assay type: functional, cell-based, Homo sapiens; conditions: Homo sapiens, NCI-H526;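 note: growth inhibition of the human NCI-H526 cell line, measured by a cell viability assay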
Description: SANGER: Inhibition of human NCI-H526 cell growth in a cell viability assay.

[28] = test system: CGTH-W-1; assay type: functional, cell-based, Homo sapiens; conditions: Homo sapiens, CGTH-W-1;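 note: growth inhibition of human CGTH-W-1 cells measured by cell viability assay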
Description: SANGER: Inhibition of human CGTH-W-1 cell growth in a cell viability assay.

[29] = test system: SNU-5; assay type: functional, cell-based, Homo sapiens; conditions: Homo sapiens, SNU-5;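 note: cell viability readout used to measure growth inhibition in human NCI-SNU-5 cells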
Description: SANGER: Inhibition of human NCI-SNU-5 cell growth in a cell viability assay.

[30] = test system: NCI-H69; assay type: functional, cell-based, Homo sapiens; conditions: Homo sapiens, NCI-H69;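 note: growth inhibition of the cell line, read out with a cell viability assay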
Description: SANGER: Inhibition of human NCI-H69 cell growth in a cell viability assay.

[31] = test system: NB10; assay type: functional, cell-based, Homo sapiens; conditions: Homo sapiens, NB10;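 note: growth inhibition of NB10 cells, read out by a cell viability assay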
Description: SANGER: Inhibition of human NB10 cell growth in a cell viability assay.

[32] = test system: COLO-320-HSR; assay type: functional, cell-based, Homo sapiens; conditions: Homo sapiens, COLO-320-HSR;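 note: growth inhibition of COLO-320-HSR cells, determined with a cell viability assay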
Description: SANGER: Inhibition of human COLO-320-HSR cell growth in a cell viability assay.

[33] = test system: LS-411N; assay type: functional, cell-based, Homo sapiens; conditions: Homo sapiens, LS-411N
[34] = test system: DEL; assay type: functional, cell-based, Homo sapiens; conditions: Homo sapiens, DEL;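 note: growth inhibition of the human DEL cell line, read out with a cell viability assay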
Description: SANGER: Inhibition of human DEL cell growth in a cell viability assay.

[35] = test system: A704; assay type: functional, cell-based; conditions: Homo sapiens;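 note: growth inhibition of human A704 cells, read out with a cell viability assay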
Description: SANGER: Inhibition of human A704 cell growth in a cell viability assay.

[36] = test system: A498; assay type: functional, cell-based, Homo sapiens; conditions: Homo sapiens, A498;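 note: growth inhibition of human A498 cells, read out with a cell viability assay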
Description: SANGER: Inhibition of human A498 cell growth in a cell viability assay.

[37] = test system: TE-8; assay type: functional, cell-based, Homo sapiens; conditions: Homo sapiens, TE-8;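 note: growth inhibition of TE-8 cells, measured with a cell viability readout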
Description: SANGER: Inhibition of human TE-8 cell growth in a cell viability assay.

[38] = test system: SK-NEP-1; assay type: functional, cell-based, Homo sapiens; conditions: Homo sapiens, SK-NEP-1;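 note: growth inhibition of human SK-NEP-1 cells, read out by a cell viability assay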
Description: SANGER: Inhibition of human SK-NEP-1 cell growth in a cell viability assay.

[39] = test system: L-428; assay type: functional, cell-based, Homo sapiens; conditions: Homo sapiens, L-428
Description: SANGER: Inhibition of human L-428 cell growth in a cell viability assay.

[40] = test system: COLO-800; assay type: functional, cell-based, Homo sapiens; conditions: Homo sapiens, COLO-800;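 note: growth inhibition of COLO-800 cells, read out with a cell viability assay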
Description: SANGER: Inhibition of human COLO-800 cell growth in a cell viability assay.

[41] = test system: COLO-829; assay type: functional, cell-based, Homo sapiens; conditions: Homo sapiens, COLO-829
Description: SANGER: Inhibition of human COLO-829 cell growth in a cell viability assay.

[42] = test system: EW-13; assay type: functional, cell-based, Homo sapiens; conditions: Homo sapiens, EW-13; read-out: IC50;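 note: growth inhibition of EW-13 cells, read out with a cell viability assay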
Description: SANGER: Inhibition of human EW-13 cell growth in a cell viability assay.

[43] = test system: NCI-H1092; assay type: functional, cell-based, Homo sapiens; conditions: Homo sapiens, NCI-H1092;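 note: cell growth inhibition measured with a cell viability assay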
Description: SANGER: Inhibition of human NCI-H1092 cell growth in a cell viability assay.

[44] = test system: NKM-1; assay type: functional, cell-based, Homo sapiens; conditions: Homo sapiens, NKM-1;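 note: growth inhibition of NKM-1 cells, read out with a cell viability assay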
Description: SANGER: Inhibition of human NKM-1 cell growth in a cell viability assay.

[45] = test system: NOMO-1; assay type: functional, cell-based, Homo sapiens; conditions: Homo sapiens, NOMO-1;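 note: growth inhibition of human NOMO-1 cells measured by a cell viability assay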
Description: SANGER: Inhibition of human NOMO-1 cell growth in a cell viability assay.

[46] = test system: NCI-H1770; assay type: functional, cell-based, Homo sapiens; conditions: Homo sapiens, NCI-H1770;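 note: growth inhibition of NCI-H1770 cells determined with a viability readout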
Description: SANGER: Inhibition of human NCI-H1770 cell growth in a cell viability assay.

[47] = test system: DOHH-2; assay type: functional, cell-based, Homo sapiens; conditions: Homo sapiens, DOHH-2;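 note: growth inhibition of human DOHH-2 cells, read out with a cell viability assay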
Description: SANGER: Inhibition of human DOHH-2 cell growth in a cell viability assay.

[48] = test system: DMS-114; assay type: functional, cell-based, Homo sapiens; conditions: Homo sapiens, DMS-114
[49] = test system: CTV-1; assay type: functional, cell-based, Homo sapiens; conditions: Homo sapiens, CTV-1;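 note: growth inhibition of the cell line, read out with a cell viability assay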
Description: SANGER: Inhibition of human CTV-1 cell growth in a cell viability assay.

Structure (SMILES): NC(=O)c1cccc(-c2cc(Nc3ccc(OC(F)(F)F)cc3)ncn2)c1
- IC50 [1]: > 1280 nM
- IC50 [2]: > 1280 nM
- IC50 [3]: > 1280 nM
- IC50 [4]: > 1280 nM
- IC50 [5]: > 1280 nM
- IC50 [6]: > 1280 nM
- IC50 [7]: > 1280 nM
- IC50 [8]: > 1280 nM
- IC50 [9]: > 1280 nM
- IC50 [10]: > 1280 nM
- IC50 [11]: > 1280 nM
- IC50 [12]: > 1280 nM
- IC50 [13]: > 1280 nM
- IC50 [14]: > 1280 nM
- IC50 [15]: > 1280 nM
- IC50 [16]: > 1280 nM
- IC50 [17]: > 1280 nM
- IC50 [18]: > 1280 nM
- IC50 [19]: > 1280 nM
- IC50 [20]: > 1280 nM
- IC50 [21]: > 1280 nM
- IC50 [22]: > 1280 nM
- IC50 [23]: > 1280 nM
- IC50 [24]: > 1280 nM
- IC50 [25]: > 1280 nM
- IC50 [26]: > 1280 nM
- IC50 [27]: > 1280 nM
- IC50 [28]: > 1280 nM
- IC50 [29]: > 1280 nM
- IC50 [30]: > 1280 nM
- IC50 [31]: > 1280 nM
- IC50 [32]: > 1280 nM
- IC50 [33]: > 1280 nM
- IC50 [34]: > 1280 nM
- IC50 [35]: > 1280 nM
- IC50 [36]: > 1280 nM
- IC50 [37]: > 1280 nM
- IC50 [38]: > 1280 nM
- IC50 [39]: > 1280 nM
- IC50 [40]: > 1280 nM
- IC50 [41]: > 1280 nM
- IC50 [42]: > 1280 nM
- IC50 [43]: > 1280 nM
- IC50 [44]: > 1280 nM
- IC50 [45]: > 1280 nM
- IC50 [46]: > 1280 nM
- IC50 [47]: > 1280 nM
- IC50 [48]: > 1280 nM
- IC50 [49]: > 1280 nM

Structure (SMILES): Cc1cc(N2CCOCC2)cc2[nH]c(-c3c(NC[C@@H](O)c4cccc(Cl)c4)cc[nH]c3=O)nc12
- IC50 [1]: 250 nM
- IC50 [2]: > 5120 nM
- IC50 [3]: > 5120 nM
- IC50 [4]: > 5120 nM
- IC50 [5]: > 5120 nM
- IC50 [6]: > 5120 nM
- IC50 [7]: 1900 nM
- IC50 [8]: 1000 nM
- IC50 [9]: > 5120 nM
- IC50 [10]: > 5120 nM
- IC50 [11]: 395 nM
- IC50 [12]: > 5120 nM
- IC50 [13]: 2260 nM
- IC50 [14]: 4870 nM
- IC50 [15]: > 5120 nM
- IC50 [16]: > 5120 nM
- IC50 [17]: > 5120 nM
- IC50 [18]: > 5120 nM
- IC50 [19]: 1550 nM
- IC50 [20]: > 5120 nM
- IC50 [21]: > 5120 nM
- IC50 [22]: 2710 nM
- IC50 [23]: > 5120 nM
- IC50 [24]: 1800 nM
- IC50 [25]: > 5120 nM
- IC50 [26]: 4790 nM
- IC50 [27]: > 5120 nM
- IC50 [28]: > 5120 nM
- IC50 [29]: > 5120 nM
- IC50 [30]: > 5120 nM
- IC50 [31]: > 5120 nM
- IC50 [32]: 934 nM
- IC50 [33]: 498 nM
- IC50 [34]: 2700 nM
- IC50 [35]: 1040 nM
- IC50 [36]: > 5120 nM
- IC50 [37]: 506 nM
- IC50 [38]: > 5120 nM
- IC50 [39]: > 5120 nM
- IC50 [40]: > 5120 nM
- IC50 [41]: > 5120 nM
- IC50 [42]: > 5120 nM
- IC50 [43]: > 5120 nM
- IC50 [44]: > 5120 nM
- IC50 [45]: > 5120 nM
- IC50 [46]: > 5120 nM
- IC50 [47]: > 5120 nM
- IC50 [48]: > 5120 nM
- IC50 [49]: 2880 nM
